In experiment [1] the test system is bone marrow stromal cell-derived chondrocytes. The settings on record: cited from earlier work.
The test system of experiment [2] is chondrocyte hypertrophy and MMP13 expression. The settings on record: ex vivo and in vivo; cited from earlier work.
A further experiment has as its system AC cartilage. Particulars: post-traumatic OA model, Jaswal et al.; cited from earlier work.
Experiment [3] relates to articular cartilage of DMM mice. Kind of experiment: DMM model of post-traumatic OA: Safranin-O/Fast Green staining and OARSI scoring of articular cartilage damage. The format is in vivo, mouse. The settings on record: mice with established osteoarthritis, 50 ng/dose injected into knee joint space. The method, then: (§1) FIG. 13. Growth differentiation factor 11 (GDF11, see, e.g., NCBI Reference Sequence: NP_005802.1) competes with BMP9/10 for binding to BMP type II receptors ACVRIIA or ACVRIIB, thereby preventing the association of BMP type I receptor ALK1 with ACVRIIA/B and decreasing BMP signaling. […] We tested this hypothesis by locally injecting GDF11 (50 ng/dose) into the knee joint space at mice with established post-traumatic OA. (A) Experimental Outline (B) Safranin-O/Fast Green (SOFG) Staining of sagittal sections of the knee joint, femur (top) and tibia (bottom) for proteoglycan (cartilage; red) and bone (green) at week 8 after DMM or Sham surgery. Mice were treated with either GDF11, or Phosphate Buffered Saline (PBS) after received surgery (n=5/group). 4-Week DMM mice were sacrificed 4 weeks after surgery and received no treatment (n=6). AC damage indicated by dotted line. (C-D) Osteoarthritis Research Society International (OARSI) scoring of AC damage in the (C) medial tibial plateau and (D) medial femoral condyle in representative sections of each treatment at week 4 or 8 after surgery. All data are shown as mean bar+/−standard deviation *p<0.05. Data analysis performed was one-way ANOVA. Scale 250 uM.
Mice (C57BL/6J) were purchased from The Jackson Laboratory. All mice were housed on a 12-hour light/dark cycle with unrestricted access to standard mouse food and water. The DMM model of injury induced OA was performed on mice at 12 weeks of age by opening the joint capsule and transecting the medial meniscotibial ligament in the right knee, destabilizing the medial meniscus(48). A sham operation was performed on the left knee of each mouse by observing the medial meniscotibial ligament but not transecting it. Mice were administered carprofen 5 mg/kg (Zoetis; 1041283) subcutaneously 30 minutes prior to surgery, immediately post-surgery, and 24 hours post-surgery to minimize pain.
Treatments were initiated either 1 day after DMM surgery once a week for 8 weeks, or 1 month after DMM surgery twice a week for 4 weeks. Mice were sacrificed at 20 weeks of age (2 months after surgery). To understand the level of articular cartilage damage 1 month after DMM surgery, a cohort of mice was sacrificed at 16 weeks old (FIG. 4).
Knee joint samples were harvested and fixed in 4% Paraformaldehyde for 3 days, and subsequently decalcified in formic acid (Statlab; 1414-32) for 3 days and embedded in paraffin. Sagittal sections 7 micrometers in thickness were taken and stained using Safranin-O (Sigma-Aldrich; S8884-25G), fast green (Sigma-Aldrich; F7258-25G), and hematoxylin (Fisherbrand; 245-656) using a standard histology protocol. Images were taken with the Olympus BX60 brightfield microscope using a 10× objective lens. Representative sections throughout the medial and lateral portion of side were chosen for histological analysis, resulting in 5 sections being imaged for both portions of the joint.
The 10 total sections per joint chosen for histology received randomized sample numbers and were given to three independent researchers who scored the level of cartilage damage based on OARSI guidelines (84). OARSI scores were analyzed with Prism 9 Software (GraphPad) using two-way ANOVA and Tukey's multiple comparisons test post-hoc. Scoring was performed by at least three experienced investigators blinded to treatment/genotype. Scores were averaged for the medial tibial plateau, medial femoral condyle, lateral tibial plateau, and lateral femoral condyle for each sample.

The next experiment deals with TGFbeta signaling. Kind of experiment: GDF11 injection into the knee joint of mice with established post-traumatic OA: TGFbeta signaling. The format is in vivo, mouse. The settings on record: data of FIG. 13. On the procedure:
as §1, with “uM. […]” for “uM.”

“Also recorded” adds a separate entry of the source.

As for `c1ccc2c(-c3cnn4cc(-c5ccc(N6CCNCC6)cc5)cnc34)ccnc2c1` [LDN-193189], in experiment [1], the “chondrocyte hypertrophy / chondrogenic hypertrophic markers in vitro” value is “not able to prevent; also recorded: no reduction”. The “chondrocyte hypertrophy and MMP13 expression” value in experiment [2] is “prevented”. Moreover, the “protection of AC cartilage” value in the experiment with AC cartilage is reported as “protective”.

B1: GDF11: GDF11 protein from Bio-techne/R&D, catalog 1958-GD, truncated active protein of 109 amino acids (protein, UniProt O95390 299-407, looked up)
Growth/differentiation factor …: NLGLDCDEHSSESRCCRYPLTVDFEAFGWDWIIAPKRYKANYCSGQCEYMFMQKYPHTHLVQQANPRGSAGPCCTPTKMSPINMLYFNDKQQIIYGKIPGMVVDRCGCS
modifications: Growth/differentiation factor 11
Take B1: the “degeneration of articular cartilage” value in experiment [3] was “attenuate the degeneration of articular cartilage”. Moreover, the TGFbeta signaling entry in the experiment with TGFbeta signaling was “increase TGFbeta signaling”.

The values are drawn from patent publication US20260234217A1, “USE OF BMP RECEPTOR ALK1 INHIBITORS IN OSTEOARTHRITIS THERAPIES” (The Regents of the University of California, priority 2023, published 2026).
